{
  "source": "patent US8937065B2",
  "about": "“Compositions and methods for modulating a kinase” (Clevexel Pharma, priority 2011, dated 2015)",
  "key": {"[1]": {"tested_on": "JAK3 pathway", "assay": "Cell based JAK3 pathway inhibition (STAT6-bla RA1 cells, IL-4 activated)", "protocol": "32 μL of the cell suspension (25,000 cells) was added to each well of a 384-well TC-Treated assay plate. Cells in Assay Media were incubated for 16-24 hours in the plate at 37° C./5% CO2 in a humidified incubator. 4 μL of a 10× serial dilution of a compound of the invention was added to appropriate wells of the plate and pre-incubated at 37° C./5% CO2 in a humidified incubator with cells for 30 minutes. 4 μL of 10× control activator IL-4 at the predetermined EC80 concentration was added to wells containing the compound of the invention. The plate was incubated for 5 hours at 37° C./5% CO2 in a humidified incubator. 8 μL of 1 μM Substrate Loading Solution was added to each well and the plate was incubated for 2 hours at room temperature. The plate was read on a fluorescence plate reader."}, "[2]": {"tested_on": "CYP", "assay": "CYP inhibition", "type": "in vitro ADME"}, "[3]": {"assay": "Mouse PK (PO)", "details": "in vivo"}, "[4]": {"tested_on": "Molt-4 cells", "assay": "Proliferation of Molt-4 cells (Cell Titer-Glo)", "details": "Homo sapiens, T cells, outcome-based, read-out: IC50 Proliferation Molt-4 cells (ALL)"}, "[5]": {"tested_on": "RL cells", "assay": "Proliferation of RL cells (Cell Titer-Glo)", "details": "Homo sapiens, B cells, outcome-based, read-out: IC50 Proliferation RL cells (Non-Hodjkin lymphoma)"}, "[6]": {"tested_on": "Interleukin 4/STAT6-STAT6-bla RA1", "assay": "Interleukin 4/STAT6-STAT6-bla RA1 inhibition (IL-4-stimulated STAT6 activity in Ramos cells)", "type": "cell-based", "details": "Homo sapiens; Ramos cells, IL4 stimulated; read-out: IC50 B cells mechanism-based: Ramos cells IL4 stimulated STAT6 activity", "protocol": "The inhibition of Interleukin 4/STAT6-STAT6-bla RA1 (activated by IL-4) by several compounds was determined using the Screening Protocol and Assay Conditions (Invitrogen, Madison, Wis.). The assays were performed according to manufacturer's protocols. Example 4, Cell-line Specific Protocols IL-4-stimulated STAT6 activity in Ramos cells for details.\n(§1) Mechanism-based inhibition assays using compound 7A (Table 1) were performed using GeneBLAzer® Technology (Invitrogen Corporation), according to manufacturer specifications. […] In this state, excitation of the coumarin results in fluorescence resonance energy transfer to the fluorescein moiety and emission of green light. […] Excitation of the coumarin in the presence of Beta-lactamase activity results in a blue fluorescence signal. […]\n(§2) An activator assay screen was run to obtain the EC80 concentration of the known activator to add in step 3. • 1. […] 4 μL of the EC80 concentration of activator, as determined in an Activator assay, was added to all wells containing compound and known inhibitor to bring the final assay volume to 40 μL. • 4. […] The assay plate was read on a fluorescence plate reader (Tecan Safire) and the data is analyzed. […]\nSTAT6-bla RA1 cells were thawed. […] The plate was read on a fluorescence plate reader."}, "[7]": {"tested_on": "B cell receptor NFAT-bla RA1", "assay": "B cell receptor NFAT-bla RA1 inhibition (goat anti-human IgM stimulated, Ramos cells)", "details": "read-out: IC50 B cells mechanism-based: Ramos cells IgM stimulated NFAT activity", "protocol": "The inhibition of B cell receptor NFAT-bla RA 1 (activated by goat anti-human IgM, which stimulates the SYK signaling pathway) by several compounds was determined using the Screening Protocol and Assay Conditions (Invitrogen, Madison, Wis.). The assays were performed according to manufacturer's protocols. See Example 4, Cell-line Specific Protocols B cell receptor activity in Ramos cells for details.\nas §1, §2\nNFAT-bla RA1 cells were thawed. […] The plate was read on a fluorescence plate reader."}, "[8]": {"assay": "6-day maximum tolerated dose safety study in female ICR nude mice", "type": "in vivo", "protocol": "Compounds of the invention are safe for administration. For example, excellent safety data was obtained in a 6-day maximum tolerated dose study at 100 mg/kg and 300 mg/kg of compound 7A, PO administered to six to eight-week old female ICR nude mice."}, "[9]": {"details": "100 mg/kg and 300 mg/kg PO, 6-day study, female ICR nude mice"}},
  "data": [
    {"smiles": "O=C(CN1CCOCC1)Nc1cccc(-c2nc(-c3c[nH]c(C(=O)N4CCCC4)c3)cs2)c1", "note": "[7A, 2-morpholino-N-(3-(4-(5-(pyrrolidine-1-carbonyl)-1H-pyrrol-3-yl)thiazol-2-yl)phenyl)acetamide]", "values": [
      {"measurement": "IC50", "setting": "[1]; STAT6-bla RA1 cells, IL-4 at EC80", "value": "110 to 1000", "unit": "nM"},
      {"measurement": "Emax", "setting": "[1]; cell based JAK3 pathway inhibition, maximal inhibition, read-out: Max % Inh", "value": 75, "unit": "%"},
      {"measurement": "CYP inhibition", "setting": "[2]", "value": ">10"},
      {"measurement": "bioavailability", "setting": "[3]; read-out: Mouse PK (PO) % F", "value": 88, "unit": "%"},
      {"measurement": "half-life", "setting": "[3]; read-out: Mouse PK (PO) T½ (converted)", "value": 3.2, "unit": "h"},
      {"measurement": "IC50", "setting": "[4]", "value": 35000, "unit": "nM"},
      {"measurement": "IC50", "setting": "[5]", "value": 26000, "unit": "nM"},
      {"measurement": "IC50", "setting": "[6]", "value": 32, "unit": "nM"},
      {"measurement": "IC50", "setting": "[7]", "value": 124, "unit": "nM"},
      {"measurement": "change in food consumption", "setting": "[8]; [9]", "value": "no change in food consumption"},
      {"measurement": "clinical observation", "setting": "[8]; [9]", "value": "no abnormalities in clinical observation"},
      {"measurement": "necropsy (internal and external)", "setting": "[8]; [9]", "value": "normal"},
      {"measurement": "weight loss", "setting": "[8]; [9]", "value": "no weight loss"},
      {"measurement": "Individual food consumption (g) Day 1", "setting": "[8]; PO-High 300 mg/kg", "value": 4.45, "unit": "g"},
      {"measurement": "Individual food consumption (g) Day 6", "setting": "[8]; PO-High 300 mg/kg", "value": 5.13, "unit": "g"},
      {"measurement": "Individual food consumption (g) Day 1", "setting": "[8]; PO-Low 100 mg/kg", "value": 4.61, "unit": "g"},
      {"measurement": "Individual food consumption (g) Day 6", "setting": "[8]; PO-Low 100 mg/kg", "value": 5.44, "unit": "g"}
    ]}
  ]
}
